Test: mn = molality of the nth substance listed, in mol/kg
Conditions: 100 kPa, Liquid; for speed of sound: Frequency=3 MHz, Sing-around technique in a fixed-path interferometer; for mass density: Vibrating tube method

[Cl-].[K+] [potassium chloride] + O
Conditions | mass density, 293.15 K [kg/m3] | mass density, 298.15 K [kg/m3] | mass density, 303.15 K [kg/m3] | mass density, 308.15 K [kg/m3] | mass density, 313.15 K [kg/m3] | speed of sound, 293.15 K [m/s] | speed of sound, 298.15 K [m/s] | speed of sound, 303.15 K [m/s] | speed of sound, 308.15 K [m/s] | speed of sound, 313.15 K [m/s]
m1 = 0.1 | 1002.99 | 1001.79 | 1000.36 | 998.71 | 996.88 | 1488.5 | 1502.5 | 1514.6 | 1525.1 | 1534
m1 = 0.2 | 1007.72 | 1006.48 | 1005.02 | 1003.35 | 1001.49 | 1493.8 | 1507.3 | 1519.3 | 1529.6 | 1538.4
m1 = 0.3 | 1013.42 | 1012.13 | 1010.63 | 1008.94 | 1007.02 | 1497.6 | 1511 | 1522.8 | 1532.9 | 1541.6

[Cl-].[Na+] [sodium chloride] + O
Conditions | mass density, 293.15 K [kg/m3] | mass density, 298.15 K [kg/m3] | mass density, 303.15 K [kg/m3] | mass density, 308.15 K [kg/m3] | mass density, 313.15 K [kg/m3] | speed of sound, 293.15 K [m/s] | speed of sound, 298.15 K [m/s] | speed of sound, 303.15 K [m/s] | speed of sound, 308.15 K [m/s] | speed of sound, 313.15 K [m/s]
m1 = 0.1 | 1002.42 | 1001.21 | 999.77 | 998.12 | 996.28 | 1489.3 | 1503.3 | 1515.5 | 1525.9 | 1534.8
m1 = 0.2 | 1006.67 | 1005.41 | 1003.93 | 1002.25 | 1000.38 | 1496.2 | 1509.9 | 1521.8 | 1532 | 1540.7
m1 = 0.3 | 1010.64 | 1009.34 | 1007.81 | 1006.1 | 1004.2 | 1502.3 | 1515.8 | – | 1537.6 | 1546.2

— the NIST ThermoML archive (doi:10.1016/j.tca.2014.10.019)
